From US10174037B2, “Dihydropyrazolopyrimidinone compounds as PDE2 inhibitors” (Merck Sharp & Dohme Corp., priority 2015, dated 2019)

Columns and labels:
[1] = molecular target: Rhesus PDE2A3 (Macaca mulatta, UniProt B3VTJ2); experiment: PDE2 fluorescence polarization (IMAP FP) assay, rhesus PDE2A3; format: biochemical, rhesus macaque; details: Lab B, read-out: Rhesus PDE2 Ki (nM) Lab B
[2] = molecular target: human PDE2A1 (Homo sapiens (Human), UniProt O00408); experiment: PDE selectivity IMAP FP assay, human PDE2A1; format: biochemical; details: Human PDE2; Lab B; read-out: Human PDE2 Ki (nM) Lab B
How it was run: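 IMAP fluorescence polarization assay; PDE2 substrate 50 nM FAM-cAMP containing 1000 nM cGMP, enzyme diluted for 20% substrate conversion, in 10 mM Tris HCl pH 7.2, 10 mM MgCl2, 1 mM DTT. Reaction 60 min at room temperature, stopped with IMAP binding solution; polarization read after 1 h. Ki reported.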

Sequence of human PDE2A1 (O00408 other isoform, or with tags, fused parts or gaps): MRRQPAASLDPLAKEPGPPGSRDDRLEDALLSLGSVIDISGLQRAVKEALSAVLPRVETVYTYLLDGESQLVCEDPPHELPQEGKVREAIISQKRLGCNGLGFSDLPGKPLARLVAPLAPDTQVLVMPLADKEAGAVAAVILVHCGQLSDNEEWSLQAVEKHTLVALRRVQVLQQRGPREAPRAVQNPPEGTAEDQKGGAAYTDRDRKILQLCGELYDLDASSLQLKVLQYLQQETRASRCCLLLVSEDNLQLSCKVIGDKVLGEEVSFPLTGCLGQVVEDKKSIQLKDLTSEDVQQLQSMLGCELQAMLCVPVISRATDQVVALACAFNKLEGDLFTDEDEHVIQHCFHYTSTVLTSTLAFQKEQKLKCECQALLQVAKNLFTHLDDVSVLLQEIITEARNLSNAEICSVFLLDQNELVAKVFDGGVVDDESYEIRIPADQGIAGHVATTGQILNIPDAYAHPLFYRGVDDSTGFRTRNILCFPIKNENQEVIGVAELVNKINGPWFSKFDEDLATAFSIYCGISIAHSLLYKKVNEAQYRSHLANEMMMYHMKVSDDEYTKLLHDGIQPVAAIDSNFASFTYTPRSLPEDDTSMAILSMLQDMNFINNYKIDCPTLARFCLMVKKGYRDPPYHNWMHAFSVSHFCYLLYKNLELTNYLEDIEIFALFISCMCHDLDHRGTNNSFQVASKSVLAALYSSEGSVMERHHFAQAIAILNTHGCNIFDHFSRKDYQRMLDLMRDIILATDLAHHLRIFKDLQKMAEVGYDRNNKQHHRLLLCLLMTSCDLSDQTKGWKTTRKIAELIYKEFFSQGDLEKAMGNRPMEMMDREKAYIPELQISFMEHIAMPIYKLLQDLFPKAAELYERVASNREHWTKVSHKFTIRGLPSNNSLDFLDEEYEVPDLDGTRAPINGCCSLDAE
Sequence of Rhesus PDE2A3 (B3VTJ2 1-941): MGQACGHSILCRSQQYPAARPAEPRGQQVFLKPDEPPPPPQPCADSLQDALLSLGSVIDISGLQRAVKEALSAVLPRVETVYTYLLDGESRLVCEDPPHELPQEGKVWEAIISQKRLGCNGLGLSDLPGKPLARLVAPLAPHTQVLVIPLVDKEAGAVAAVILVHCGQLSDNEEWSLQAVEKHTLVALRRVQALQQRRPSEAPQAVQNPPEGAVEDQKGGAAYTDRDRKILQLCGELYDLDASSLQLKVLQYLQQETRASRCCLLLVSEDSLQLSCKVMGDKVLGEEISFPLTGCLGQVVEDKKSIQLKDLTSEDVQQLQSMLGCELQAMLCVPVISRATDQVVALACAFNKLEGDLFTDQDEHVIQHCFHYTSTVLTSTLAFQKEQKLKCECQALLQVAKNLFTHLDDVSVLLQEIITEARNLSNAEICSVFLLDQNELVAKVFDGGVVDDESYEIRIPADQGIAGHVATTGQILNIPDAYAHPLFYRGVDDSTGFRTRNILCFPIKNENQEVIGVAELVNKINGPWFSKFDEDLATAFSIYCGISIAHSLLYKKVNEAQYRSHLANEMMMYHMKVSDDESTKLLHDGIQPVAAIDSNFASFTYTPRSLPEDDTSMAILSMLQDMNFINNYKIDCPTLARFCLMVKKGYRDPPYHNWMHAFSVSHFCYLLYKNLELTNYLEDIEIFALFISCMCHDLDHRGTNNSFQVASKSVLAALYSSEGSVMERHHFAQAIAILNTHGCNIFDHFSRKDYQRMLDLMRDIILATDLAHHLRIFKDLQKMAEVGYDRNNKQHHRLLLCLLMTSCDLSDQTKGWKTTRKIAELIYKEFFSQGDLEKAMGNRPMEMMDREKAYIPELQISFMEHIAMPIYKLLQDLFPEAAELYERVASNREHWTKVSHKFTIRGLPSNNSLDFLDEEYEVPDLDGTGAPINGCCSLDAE

Row | SMILES | Ki [1] [nM] | Ki [2] [nM]
1 | CN(C)c1nc2c(c(CO)nn2C(c2ccc(C(F)(F)F)cc2)C2CC2)c(=O)[nH]1 (single isomer, unassigned) [Example 75, (S)- or (R)-1-(Cyclopropyl(4-(trifluoromethyl)phenyl)methyl)-6-(dimethylamino)-3-(hydroxymethyl)-1H-pyrazolo[3,4-d]pyrimidin-4(5H)-one] | 0.79 | 1.1
2 | CC(C)c1ccc(C(C2CC2)n2nc(CO)c3c(=O)[nH]c(N(C)C)nc32)cc1 (single isomer, unassigned) [Example 77, (S)- or (R)-1-(Cyclopropyl(4-isopropxlphenyl)methyl)-6-(dimethylamino)-3-(hydroxymethyl)-1H-pyrazolo[3,4-d]pyrimidin-4(5H)-one] | 0.084 | 0.069
3 | CC(C)c1ccc(C(C(C)C)n2nc(CO)c3c(=O)[nH]c(N(C)C)nc32)cc1 (single isomer, unassigned) [Example 79, (S)- or (R)-6-(Dimethylamino)-3-(hydroxymethyl)-1-(1-(4-isopropylphenyl)-2-methylpropyl)-1H-pyrazolo[3,4-d]pyrimidin-4(5H)-one] | 0.054 | 0.044
4 | CC(c1ccc(C(F)(F)F)cc1F)n1nc(CO)c2c(=O)[nH]c(N(C)C)nc21 (single isomer, unassigned) [Example 81, (S)- or (R)-6-(Dimethylamino)-1-(1-(2-fluoro-4-(trifluorornethyl)phenyl)ethyl)-3-(hyrdroxymethyl)-1H-pyrazolo[3,4-d]pyrimidin-4(5H)-one] | 0.25 | 0.29
5 | CC(c1ccc(C(F)F)cc1)n1nc(CO)c2c(=O)[nH]c(N(C)C)nc21 (single isomer, unassigned) [Example 83, (S)- or (R)-1-(1-(4-(Difluoromethyl)phenyl)ethyl)-6-(dimethylamino)-3-(hydroxymethyl)-1H-pyrazolo[3,4-d]pyrimidin-4(5H)-one] | 1.1 | 0.86
6 | CC(c1ccc(OC(F)(F)F)c(F)c1)n1nc(CO)c2c(=O)[nH]c(N(C)C)nc21 (single isomer, unassigned) [Example 85, (S)- or (R)-6-(Dimethylamino)-1-(1-(3-fluoro-4-(trifluoromethoxy)phenyl)ethyl)-3-(hydroxymethyl)-1H-pyrazolo[3,4-d]pyrimidin-4(5H)-one] | 0.3 | 0.24
7 | CN(C)c1nc2c(c(CO)nn2C(c2ccc(CC(F)(F)F)cc2)C2CC2)c(=O)[nH]1 (single isomer, unassigned) [Example 87, (S)- or (R)-1-(Cyclopropyl(4-(2,2,2-trifluoroethyl)phenyl)methyl)-6-(dimethylainino)-3-(hydroxymethyl)-1H-pyrazolo[3,4-d]pyrimidin-4(5H)-one] | 0.4 | 0.38
8 | CC(C)C(c1ccc(C(F)F)cc1)n1nc(CO)c2c(=O)[nH]c(N(C)C)nc21 (single isomer, unassigned) [Example 91, (S)- or (R)-1-(1-(4-(Difluoromethyl)phenyl)-2-methylpropyl)-6-(dimethylamino)-3-(hydroxymethyl)-1H-pyrazolo[3,4-d]pyrimidin-4(5H)-one] | 0.18 | 0.18
9 | CN(C)c1nc2c(c(CO)nn2C(c2ccc(CC(F)(F)F)c(F)c2)C2CC2)c(=O)[nH]1 (single isomer, unassigned) [Example 94, (R)- or (S)-1-(Cyclopropyl(3-fluoro-4-(2,2,2-trifluoroethyl)phenyl)methyl)-6-(dimethylamino)-3-(hydroxymethyl)-1H-pyrazolo[3,4-d]pyrimidin-4(5H)-one] | 0.15 | 0.14

More lines, in order of falling Ki [1], values ahead:

Row | Ki [1] [nM] | Ki [2] [nM] | SMILES
10 | 2.3 | 1.1 | CC(C)C(c1ccc(C(F)F)cc1)n1nc(CO)c2c(=O)[nH]c(N(C)C)nc21 (single isomer, unassigned) [Example 90, (R)- or (S)-1-(1-(4-(Difluoromethyl)phenyl)-2-methylpropyl)-6-(dimethylamino)-3-(hydroxymethyl)-1H-pyrazolo[3,4-d]pyrimidin-4(5H)-one]
11 | 1 | 0.68 | CC(c1ccc(OC(F)(F)F)c(F)c1)n1nc(CO)c2c(=O)[nH]c(N(C)C)nc21 (single isomer, unassigned) [Example 84, (R)- or (S)-6-(Dimethylamino)-1-(1-(3-fluoro-4-(trifluoromethoxy)phenyl)ethyl)-3-(hydroxymethyl)-1H-pyrazolo[3,4-d]pyrimidin-4(5H)-one]
12 | 0.91 | 0.57 | CN(C)c1nc2c(c(CO)nn2C(c2ccc(CC(F)(F)F)cc2)C2CC2)c(=O)[nH]1 (single isomer, unassigned) [Example 86, (R)- or (S)-1-(Cyclopropyl(4-(2,2,2-trifluoroethyl)phenyl)methyl)-6-(dimethylamino)-3-(hydroxymethyl)-1H-pyrazolo[3,4-d]pyrimidin-4(5H)-one]
13 | 0.55 | 0.42 | CCC(c1ccc(C(F)F)cc1)n1nc(CO)c2c(=O)[nH]c(N(C)C)nc21 (single isomer, unassigned) [Example 93, (S)- or (R)-1-(1-(4-(Difluoromethyl)phenyl)propyl)-6-(dimethylamino)-3-(hydroxymethyl)-1H-pyrazolo[3,4-d]pyrimidin-4(5H)-one]
14 | 0.44 | 0.39 | CN(C)c1nc2c(c(CO)nn2C(c2ccc(CC(F)(F)F)c(F)c2)C2CC2)c(=O)[nH]1 (single isomer, unassigned) [Example 95, (S)- or (R)-1-(Cyclopropyl(3-fluoro-4-(2,2,2-trifluoroethyl)phenyl)methyl)-6-(dimethylamino)-3-(hydroxymethyl)-1H-pyrazolo[3,4-d]pyrimidin-4(5H)-one]
15 | 0.25 | 0.16 | CCC(c1ccc(C(F)(F)F)cc1)n1nc(CO)c2c(=O)[nH]c(N(C)C)nc21 (single isomer, unassigned) [Example 73, (S)- or (R)-6-(Dimethylamino)-3-(hydroxymethyl)-1-(1-(4-(trifluoromethyl)phenyl)propyl)-1H-pyrazolo[3,4-d]pyrimidin-4(5H)-one]
16 | 0.21 | 0.22 | CC(C)c1ccc(C(C2CC2)n2nc(CO)c3c(=O)[nH]c(N(C)C)nc32)cc1 (single isomer, unassigned) [Example 76, (R)- or (S)-1-(Cyclopropyl(4-isopropylphenyl)methyl)-6-(dimethylamino)-3-(hydroxymethyl)-1H-pyrazolo[3,4-d]pyrimidin-4(5H)-one]
17 | 0.15 | 0.17 | CN(C)c1nc2c(c(CO)nn2C(c2ccc(C(F)(F)F)cc2)C2CC2)c(=O)[nH]1 (single isomer, unassigned) [Example 74, (R)- or (S)-1-(Cyclopropyl(4-(trifluoromethyl)phenyl)methyl)-6-(dimethylamino)-3-(hydroxymethyl)-1H-pyrazolo[3,4-d]pyrimidin-4(5H)-one]
18 | 0.14 | 0.11 | CC(C)c1ccc(C(C(C)C)n2nc(CO)c3c(=O)[nH]c(N(C)C)nc32)cc1 (single isomer, unassigned) [Example 78, (R)- or (S)-6-(Dimethylamino)-3-(hydroxymethyl)-1-(1-(4-isopropylphenyl)-2-methylpropyl)-1H-pyrazolo[3,4-d]pyrimidin-4(5H)-one]
